In the case of `CN1CC(Cn2ccnc2-c2ccccc2)CC2c3cccc4[nH]cc(c34)CC21` (centres undefined), the melting point is reported as 193 to 195 °C.
Work on `Cc1cc(CN(Cc2ccc(F)cc2)c2cc(-c3ccc(C(F)(F)F)cc3)nn2C)cc(C)c1OC(C)(C)C(=O)O` yielded a melting point greater than 90 °C.
Work on `O=C1NC(=O)C(Nc2ccc(CCNC[C@H](O)c3ccccc3)cc2)S1` (some centres undefined) yielded a melting point of 55 °C.
With `COC(=O)CC(c1ccc(OC)cc1)N1C(=O)c2ccccc2C1=O` (centres undefined) the melting point was 65 to 66 °C.
With `Nc1cc2nc(-c3ccccc3)nn2cc1F` the melting point was greater than 250 °C.
`Cc1cc(C(=O)O)cc(Cl)c1C1=NC(C)(C(C)C)C(=O)N1` (centres undefined) showed a melting point of 245 to 248 °C.
`COc1cc(CC(=O)c2c(O)c3cccnc3n(-c3ccccc3)c2=O)cc(OC)c1` gave a melting point of 170 to 171 °C.
Molecule `Cc1ccc(S(=O)(=O)Cl)c2c1CCN(C(=O)C(F)(F)F)C2` has a melting point of 152 to 153 °C.
`CN(C)CCNc1ccc(O)c2c1C(=O)c1c(O)ccc(O)c1C2=O` showed a melting point of 171 to 172 °C.
For `CSc1ccc(Nc2cc(-c3nnc(C(C)(C)OC(C)=O)o3)ccn2)cc1`, the melting point was 142 to 143 °C.
`COc1ccccc1CNc1cc(C(N)=O)c([N+](=O)[O-])cc1[N+](=O)[O-]` gave a melting point of 198 to 202 °C.
In the case of `NC(=O)c1c(Cl)c(-c2ccccc2)n2c1CN(S(=O)(=O)Nc1ccc(F)cc1)CC2`, the melting point is reported as 183 to 185 °C.
Molecule `CC(C)c1ccc2oc(C(O)COc3ccc(C(=O)O)cc3)cc2c1` (centres undefined) has a melting point of 148 to 150 °C.
With `Cc1cc(CN2CCN(C)CC2)cc2c1Cc1c(-c3ccsc3)n[nH]c1-2` the melting point was 235 to 236 °C.
Work on `N#Cc1ccc(CC23CCCN2C(=O)N(Cc2cc(Cl)cc(Cl)c2)C3=O)cc1` (centres undefined) yielded a melting point of 124 °C.
Molecule `COCc1oc(-c2nn(Cc3ccccc3F)c3ccccc23)nc1C` has a melting point of 86 to 88 °C.
`CC=C1C(=O)c2ccccc2OC1c1ccccc1` (centres undefined) gave a melting point of 47 to 49 °C.
Work on `CC(C)CC(C)(C(=O)NC1CCCCCCCCCCNC1=O)c1ccccc1S` (centres undefined) yielded a melting point of 166 to 171 °C.
For `CSC(=NCCSCc1nccs1)NC(=O)c1ccccc1`, the melting point was 64 to 65 °C.
`CCN(CC)Cc1cnc2c(C)c(NC(=O)c3ccc(-c4ccc(F)cc4)cc3)ccc2c1` gave a melting point of 155 to 156 °C.
In the case of `N#CSCCON=C(C(=O)O)c1csc(NC(c2ccccc2)(c2ccccc2)c2ccccc2)n1`, the melting point is reported as 194 °C.
`CN1CCN(c2ccc3nnn(Cc4ccc5ncccc5c4)c3n2)CC1` gave a melting point of 131 to 133 °C.
With `COC(=O)c1cnc2cccc(O)c2c1` the melting point was 200 °C.
For `O=[N+]([O-])c1cc(Cl)c(N=C2NCCCN2)c(Cl)c1`, the melting point was 265 °C.
With `CN(C)C=Cc1ccc(OC(F)(F)F)cc1[N+](=O)[O-]` the melting point was 59 °C.
Molecule `CN1C(=O)C(=C2CCN(Cc3ccccc3)CC2)c2ccccc21` has a melting point of 101 to 102 °C.
With `Nc1ccccc1C(=O)N1CCN(CCc2ccc(Cl)cc2)CC1` the melting point was 108 to 109 °C.
With `Brc1cccc(C2Cc3cnc(Nc4ccc(CCNc5ccccc5)cc4)nc3-c3ccccc32)c1` (centres undefined) the melting point was 92 to 94 °C.
Work on `CCC(=O)Oc1ccc(-c2oc3cc(OC)cc(OC(=O)CC)c3c(=O)c2OC)cc1OC` yielded a melting point of 106 to 107 °C.
`Cn1cc(Oc2cccc(Cl)c2Cl)c(=O)c(-c2cccc(C(F)(F)F)c2)c1` showed a melting point of 200 to 202 °C.
For `CCCCOC(=O)C(c1ccc(O)c(C(C)(C)C)c1)c1ccc(O)c(C(C)(C)C)c1`, the melting point was 124 °C.
`COc1ccc(Cn2c(=S)[nH]c(=S)c3[nH]c(C(C)C)nc32)cc1OC1CCCC1` showed a melting point of 204 to 206 °C.
In the case of `COc1ccc(C(=O)CCC(=O)c2ccc3ccccc3c2)cc1OC`, the melting point is reported as 133 °C.
Molecule `CON=C1CN(c2cc3c(cc2F)c(=O)c(C(=O)O)cn3-c2ccc(F)cc2F)CC12CN(C(=O)OC(C)(C)C)C2` has a melting point of 263 to 264 °C.
For `C=CCc1cc(CN2C(=O)CCc3c2ccc(O)c3CC=C)cc(OC)c1O`, the melting point was 159 to 161 °C.
Work on `CC1(C)CC(=O)C2=C(C1)NC1=C(C(=O)CC(C)(C)C1)C2c1ccc2ccccc2c1` yielded a melting point greater than 300 °C.
In the case of `Cc1csc(C(=O)c2[nH]c3ccc(Cl)cc3c2CC(=O)O)n1`, the melting point is reported as 218 to 220 °C.
`COc1ccc(O)c(C2(OC)Sc3ccccc3N(C)C2=O)c1` (centres undefined) gave a melting point of 135 to 136 °C.
`Cc1cc(C)cc(CNc2c(NC(C)(C)C)c(=O)c2=O)c1` gave a melting point of 246 to 248 °C.
`CCOCn1c(Sc2ccc(Cl)c(Cl)c2)cc(C#N)c1-c1ccc(Cl)cc1` showed a melting point of 95 to 97 °C.
`C=C(C)C(=O)Oc1cccc(O)c1O` showed a melting point of 100 to 102 °C.
In the case of `COc1cc(COc2nn(Cc3ccc(Oc4ccccc4)cc3)cc2C(N)=O)ccc1OCc1nc(-c2ccco2)oc1C`, the melting point is reported as 105 to 106 °C.
With `COC(=O)[C@@H](Cc1ccccc1)NC(=O)Nc1n[nH]c(=S)s1` the melting point was 110 °C.
`COc1ccc(C(CC(=O)O)N2C(=O)c3ccccc3C2=O)cc1` (centres undefined) gave a melting point of 160 to 164 °C.
With `O=C(NC1CCN(CCCOc2ccccc2-c2nnn[nH]2)CC1)c1ccccc1` the melting point was 275 to 277 °C.
`CCOC(=O)CN(CC(=O)OCC)C(=O)C(=O)c1ccc(OCCCCCCCCCCCCOc2ccccc2)cc1` showed a melting point of 55 to 56 °C.
In the case of `COc1ccc(S(=O)(=O)Nc2cccnc2Nc2cccc(OC)c2)cc1`, the melting point is reported as 161 to 162 °C.
With `Nc1nc2ccccc2c2c1ncn2CCCCNC(=O)c1ccc(Cn2c(N3CCCC3)nc3ccccc32)cc1` the melting point was 150 to 153 °C.
Work on `CCOC(=O)c1ncc2[nH]c3ccc(Oc4ncccn4)cc3c2c1COC` yielded a melting point of 128 to 129 °C.
With `Nc1ccc(C(O)c2ccc(Cl)cn2)cc1` (centres undefined) the melting point was 122 to 123 °C.
Molecule `O=C(O)CCNC(=O)C(CS)C(F)(F)F` (centres undefined) has a melting point of 108 to 110 °C.
Work on `CC(C)(C)OC(=O)N1CC(c2n[nH]c(-c3ccccn3)n2)C1` yielded a melting point of 220 °C.
Molecule `COc1ccc(CN2C(=O)[C@H](CO)[C@H]2S(=O)(=O)C(C)(C)C)cc1` has a melting point of 121 to 122 °C.
`CC(=O)Nc1nc(NC(C)=O)c2[nH]cnc2n1` gave a melting point of 293 to 295 °C.
Work on `CC(C)(C)c1ccc(CCCC(=O)CC2CCCCC2)cc1NC(=O)CC1c2ccccc2Oc2ccccc21` yielded a melting point of 193 to 194 °C.
`CCC(OC(C)=O)c1ccc(Cl)c2nc3n(c12)CCCN3c1ccc(OC)cc1Cl` (centres undefined) showed a melting point of 178 to 180 °C.
`COC(=O)c1cccc(-c2cc(-c3ccc(Cl)cc3)on2)c1` gave a melting point of 157 to 158 °C.
With `O=C1Nc2cc(NC(=O)c3c[nH]cc(-c4cccc(Cl)c4)c3=O)ccc2/C1=C/c1ccc[nH]1` the melting point was greater than 300 °C.
`Cc1ccc(S(=O)(=O)Nc2ccc(F)cc2)cc1` showed a melting point of 78 to 79.5 °C.
In the case of `Cc1onc(-c2ccccc2)c1-c1[nH]c2ccccc2c1CCC(=O)N(C)C`, the melting point is reported as 174 to 177 °C.
Molecule `CSc1ccc(-c2coc3ccc(C(=O)NN)nc23)cc1` has a melting point of 240 to 241 °C.
Work on `Nc1cc2c(Nc3ccc(Br)c(Cl)c3)ncnc2cn1` yielded a melting point of 272 to 275 °C.
Work on `Cc1nn(C)c(C)c1C(=O)NC1CCCCC1` yielded a melting point of 185 to 186 °C.
With `COc1ccc(CN2C(CN3CCOCC3)=Cc3ccsc3S2(=O)=O)cc1` the melting point was 112 to 114 °C.
Work on `COC(=O)c1ccc(-c2ccc3nc(OC)ccc3c2)cc1` yielded a melting point of 158 to 161 °C.
With `CCC1c2cccn2-c2cc(F)c(F)cc2N1S(=O)(=O)c1ccc(O)cc1` (centres undefined) the melting point was 177 to 179 °C.
In the case of `CCOC(=O)c1cn(NCC=O)c2cc(-n3cccc3)c(F)cc2c1=O`, the melting point is reported as 194 to 198 °C.
For `CC(=O)c1ccc(OCCCN2CCC(c3noc4cc(F)ccc34)CC2)c(O)c1`, the melting point was 122 to 124 °C.
Molecule `C[C@@H]1[C@@H](S(=O)(=O)c2ccccc2)[C@@H]2O[C@@H]2C[C@@H]1O` has a melting point of 148 °C.
`O=S1(=O)OCCN1Cc1ccccc1Cl` gave a melting point of 61 to 62.5 °C.
`Oc1cc2[nH]c3c(O)c(O)cc(Br)c3c2cc1O` showed a melting point greater than 260 °C.
`CNC(=S)NCCSCc1nscc1Br` showed a melting point of 62 to 63 °C.
For `Cc1cccc(C)c1-c1cc(O)c(SCc2ccccc2)c(=O)o1`, the melting point was 140 to 143 °C.
In the case of `CCOc1cccc(NC(=O)Nc2ccc3c(c2)CCN(C(=O)Nc2ccc(OCCO)cc2Cl)C3)c1`, the melting point is reported as 148 to 150 °C.
With `CCOC(=O)CC(c1ccccc1)(c1ccccc1)c1ncc[nH]1` the melting point was 75 °C.
In the case of `CCOC(=O)CCCOc1ccc(C=Cc2ccncc2)cc1`, the melting point is reported as 83 to 85 °C.
For `CCCCc1nc(Cc2ccc(-c3ccccc3C(=O)O)cc2)c(CC(=O)O)c(Cc2ccc(-c3ccccc3C(=O)O)cc2)n1`, the melting point was 160 °C.
For `COc1ccccc1OC(=O)c1cnoc1C`, the melting point was 108 to 111 °C.
`CON(C)C(=O)c1cc2c(s1)CCCC2` showed a melting point of 36 to 37 °C.
In the case of `CC(C)(COc1ccc2ncc(Cl)n2n1)CS(N)(=O)=O`, the melting point is reported as 197 to 200 °C.
Work on `[N-]=[N+]=NCC(=O)Nc1ccc(S(=O)(=O)c2ccc(F)cc2)cc1` yielded a melting point of 181 to 184 °C.
For `CC(C)(C)C(=O)CC(Sc1ccccc1)c1ccc(Cl)cc1Cl` (centres undefined), the melting point was 79 to 80 °C.
For `N#Cc1ccc2ccn3cccc3c(=O)c2c1`, the melting point was 213 to 217 °C.
With `CCn1ncc2c3onc(-c4ccc(C)cc4)c3cnc21` the melting point was 173 to 175 °C.
With `Cc1ccc2nc3c(nc2c1)SC(=C(C#N)C#N)S3` the melting point was 265 to 267 °C.
With `COc1cccc(N2CCC(NC(C)=O)CC2)n1` the melting point was 125 to 127 °C.
With `O=C(O)c1ccc(SCc2c(O[C@H](Cn3ccnc3)c3ccccc3)ccc3c2CCCC3=O)cc1` the melting point was 215 °C.
`CC(C)(C)C(Nc1c(Nc2cccnc2)c(=O)c1=O)C(Oc1ccccc1)C(N)=O` (centres undefined) gave a melting point of 227 to 228 °C.
For `C=CCN(CC=C)c1nc(NC(C)=O)n2oc(=O)nc2n1`, the melting point was 164 to 165 °C.
`Cc1cccc(N2CCOCC2)c1NC(N)=S` gave a melting point of 199 °C.
`Cn1c(-c2cccnc2)cc(=O)n(C)c1=O` gave a melting point of 120 to 122 °C.
`O=[N+]([O-])c1cc(-c2cnc3ccccn23)cc(O)c1O` gave a melting point of 110 °C.
Work on `CCCCNc1ccc(-c2c(N)nc(N)nc2CC)cc1[N+](=O)[O-]` yielded a melting point of 252 to 254 °C.
In the case of `Cc1nc(Cl)c2c(c1O)COC2C` (centres undefined), the melting point is reported as 248 °C.
`CCCCOC(=O)NCCc1nc(-c2ccc(-c3ccccc3)cc2)c[nH]1` showed a melting point of 137 °C.
With `COc1ccc(-c2cc(=O)n(Cc3ccc(F)c(F)c3)nc2-c2ccc(OC)cc2)cc1` the melting point was 155 to 156 °C.
With `CCCC/C=C\CCCCOc1cccc(C(N)=O)c1` the melting point was 98 to 100 °C.
For `C=CCOc1ccc2sc(=O)oc2c1`, the melting point was 78 to 80 °C.
With `CCCCCC(CC(=O)Nc1cc(C(N)=O)ccc1C(C)(C)C)c1ccc(OCCCOCC)cc1OC` (centres undefined) the melting point was 135 to 136 °C.
